≈ marks a conversion by molar mass, not a printed value. Marks after values point to notes of the source that are not given here.
Assays:
[1] = tested on: APEC O78; format: cell-based, avian pathogenic Escherichia coli (APEC); conditions: APEC O78, M63 media; for MIC: MIC/MBC; for MBC: cell prints MIC/MBC
[2] = tested on: APEC O1; format: cell-based, avian pathogenic Escherichia coli (APEC); conditions: APEC O1, M63 media; MIC/MBC
[3] = tested on: APEC O2; format: cell-based, avian pathogenic Escherichia coli (APEC); conditions: APEC O2, M63 media; MIC/MBC
[4] = tested on: APEC O8; format: cell-based, avian pathogenic Escherichia coli (APEC); conditions: APEC O8, M63 media; MIC/MBC
[5] = tested on: APEC O15; format: cell-based, avian pathogenic Escherichia coli (APEC); conditions: APEC O15, M63 media; MIC/MBC
[6] = tested on: APEC O18; format: cell-based, avian pathogenic Escherichia coli (APEC); conditions: APEC O18, M63 media; MIC/MBC
[7] = tested on: APEC O35; format: cell-based, avian pathogenic Escherichia coli (APEC); conditions: APEC O35, M63 media; MIC/MBC
[8] = tested on: APEC O115; format: cell-based, avian pathogenic Escherichia coli (APEC); conditions: APEC O115, M63 media; MIC/MBC
[9] = tested on: APEC O109; format: cell-based, avian pathogenic Escherichia coli (APEC); conditions: APEC O109, M63 media; MIC/MBC
[10] = tested on: APEC O78-53; format: cell-based, avian pathogenic Escherichia coli (APEC); conditions: APEC O78-53, M63 media; MIC/MBC
[11] = tested on: APEC O1-63; format: cell-based, avian pathogenic Escherichia coli (APEC); conditions: APEC O1-63, M63 media; MIC/MBC
[12] = tested on: APEC O2-211; format: cell-based, avian pathogenic Escherichia coli (APEC); conditions: APEC O2-211, M63 media; MIC/MBC
[13] = tested on: biofilm embedded APEC O78; test: MBEC High-throughput assay; format: cell-based, avian pathogenic Escherichia coli (APEC); conditions: biofilm embedded APEC O78; superscript = multiple of MIC (footnote)
Protocol: Effect against biofilm embedded APEC. The effect of cidal SMs against biofilm embedded APEC was determined using MBEC High-throughput (HTP) assay (Innovotech Inc., AB, Canada). Briefly, 150 µL of 0.05 OD600 adjusted APEC O78 culture was aliquoted into each well of the MBEC device containing polystyrene pegs and incubated at 37° C. for 36 h in LB media under stationary condition. […] The plate was incubated in the dark for 18 h at 37° C. with rotation at 110 rpm. The DMSO (1%) and M63 media were used as positive and negative controls, respectively. Following incubation, MIC of SMs in challenged plate was recorded. The SMs exposed pegs were then transferred to a new 96-well plate containing PBS and sonicated for 30 mins (Aquasonic ultrasonic cleaner, VWR) to disrupt the biofilm. […] Biofilm embedded APEC bacteria were enumerated and minimum biofilm eradication concentration (MBEC) of […] were determined. Two independent experiments were conducted.

[14] = tested on: APEC O78; test: Confocal microscopy bacterial cytological profiling; format: cell-based, avian pathogenic Escherichia coli (APEC); conditions: 2X MBC
Protocol: Confocal and scanning electron microscopy. Confocal microscopy was used for bacterial cytological profiling (BCP) to identify the cellular pathways targeted by SMs as described previously. […] After incubation, treated cultures were centrifuged, washed, and resuspended in 100 μL PBS. […] Cultures were then centrifuged, washed, and resuspended in PBS to 1⁄10th volume of the original cultures.

[15] = tested on: APEC O78; test: Loss of 260/280 nm absorbing materials assay; format: cell-based, avian pathogenic Escherichia coli (APEC); conditions: 2X MBC, 1 h, *P<0.05 vs DMSO; for Absorbance 260: 260 nm absorbing material in supernatant; for Absorbance 280: 280 nm absorbing material in supernatant
[16] = tested on: intracellular APEC O78 in Caco-2 cells; test: Intracellular survival assay (cidal SMs); conditions: O78, Caco-2, 6 h treatment; superscript = multiple of MIC
[17] = tested on: intracellular APEC O78 in HD11 cells; test: Intracellular survival assay (cidal SMs); conditions: O78, HD11, 6 h treatment; superscript = multiple of MIC
[18] = tested on: intracellular APEC O78 in THP-1 cells; test: Intracellular survival assay (cidal SMs); conditions: O78, THP-1, 6 h treatment; superscript = multiple of MIC
[19] = tested on: intracellular APEC O2 in Caco-2 cells; test: Intracellular survival assay (cidal SMs); conditions: O2, Caco-2, 6 h treatment; superscript = multiple of MIC
[20] = tested on: intracellular APEC O2 in HD11 cells; test: Intracellular survival assay (cidal SMs); conditions: O2, HD11, 6 h treatment; superscript = multiple of MIC
[21] = tested on: intracellular APEC O2 in THP-1 cells; test: Intracellular survival assay (cidal SMs); conditions: O2, THP-1, 6 h treatment; superscript = multiple of MIC
[22] = tested on: intracellular APEC O1 in Caco-2 cells; test: Intracellular survival assay (cidal SMs); conditions: O1, Caco-2, 6 h treatment; superscript = multiple of MIC
[23] = tested on: intracellular APEC O1 in HD11 cells; test: Intracellular survival assay (cidal SMs); conditions: O1, HD11, 6 h treatment; superscript = multiple of MIC
[24] = tested on: intracellular APEC O1 in THP-1 cells; test: Intracellular survival assay (cidal SMs); conditions: O1, THP-1, 6 h treatment; superscript = multiple of MIC
[25] = tested on: Rif^r APEC O78; test: In vivo efficacy of growth inhibitors in APEC infected broiler chickens; conditions: for reduction of average APEC load in internal organs: average of liver, lung and kidney; for reduction of average APEC load in internal organs / reduction of APEC load, Heart / reduction of APEC load, Kidney / reduction of APEC load, Liver / reduction of APEC load, Lung: vs untreated control; for reduction of APEC induced mortality: oral gavage twice a day, 5 days, untreated mortality (58.34%) normalized to 100%; for reduction of APEC lesions severity (%), Air-sacs (airsacculitis) / reduction of APEC lesions severity (%), Heart (pericarditis) / reduction of APEC lesions severity (%), Liver (perihepatitis) / reduction of APEC lesions severity (%), Lung (lung congestion): untreated control = 100%; for Body weight gain (BWG): weight of live chickens before necropsy minus weight before treatment
[26] = tested on: intracellular APEC O78, O2, and O1 in infected Caco-2, HD11, and THP1 cells; test: Intracellular survival assay (cidal SMs), summary over serotypes and cells; conditions: overall ranking

COc1ccc(CNCc2cccc(C(F)(F)F)c2)cc1OCC(O)CN1CCCC1 (stereo not shown) [SM7]
MIC [1]: 25 µM (≈ 11 µg/mL) | MBC [1]: 50 µM (≈ 21.9 µg/mL) | MBC [2]: 100 µM (≈ 43.8 µg/mL) | MIC [2]: 50 µM (≈ 21.9 µg/mL) | MBC [3]: 50 µM (≈ 21.9 µg/mL) | MIC [3]: 25 µM (≈ 11 µg/mL) | MBC [4]: 200 µM (≈ 87.7 µg/mL) | MIC [4]: 100 µM (≈ 43.8 µg/mL) | MBC [5]: 50 µM (≈ 21.9 µg/mL) | MIC [5]: 50 µM (≈ 21.9 µg/mL) | MBC [6]: 100 µM (≈ 43.8 µg/mL) | MIC [6]: 50 µM (≈ 21.9 µg/mL) | MBC [7]: 50 µM (≈ 21.9 µg/mL) | MIC [7]: 25 µM (≈ 11 µg/mL) | MBC [8]: 100 µM (≈ 43.8 µg/mL) | MIC [8]: 100 µM (≈ 43.8 µg/mL) | MBC [9]: 100 µM (≈ 43.8 µg/mL) | MIC [9]: 100 µM (≈ 43.8 µg/mL) | MBC [10]: 50 µM (≈ 21.9 µg/mL) | MIC [10]: 50 µM (≈ 21.9 µg/mL) | MBC [11]: 100 µM (≈ 43.8 µg/mL) | MIC [11]: 50 µM (≈ 21.9 µg/mL) | MBC [12]: 50 µM (≈ 21.9 µg/mL) | MIC [12]: 50 µM (≈ 21.9 µg/mL) | MBEC [13]: 50^b µM | cytological profile (confocal, FM4-64 / SYTO-9) [14]: membrane pore formers | Absorbance 260 [15]: 3.91* | Absorbance 280 [15]: 2.70* | SMs intracellular APEC clearance concentration [16]: 100^c µM | SMs intracellular APEC clearance concentration [17]: 50^b µM | SMs intracellular APEC clearance concentration [18]: 50^b µM | SMs intracellular APEC clearance concentration [19]: 100^c µM | SMs intracellular APEC clearance concentration [20]: 100^c µM | SMs intracellular APEC clearance concentration [21]: 25^a µM | SMs intracellular APEC clearance concentration [22]: 100^c µM | SMs intracellular APEC clearance concentration [23]: 100^c µM | SMs intracellular APEC clearance concentration [24]: >100 µM | reduction of average APEC load in internal organs ([25]; heart): 2.6 logs | cumulative lesions score ([25]; liver, heart, lung and air-sacs, untreated 6.2): 2.4 | reduction of APEC induced mortality [25]: 71.42% | reduction of APEC lesions severity (%), Air-sacs (airsacculitis) [25]: 52.9% | reduction of APEC lesions severity (%), Heart (pericarditis) [25]: 60% | reduction of APEC lesions severity (%), Liver (perihepatitis) [25]: 60% | reduction of APEC lesions severity (%), Lung (lung congestion) [25]: 83.3% | effect on BWG of chickens ([25]; vs non-treated and non-infected chickens): indistinguishable BWG | reduction of APEC load, Heart [25]: 2.3 log CFU/g of tissues | reduction of APEC load, Kidney [25]: 3.2 log CFU/g of tissues | reduction of APEC load, Liver [25]: 2.5 log CFU/g of tissues | reduction of APEC load, Lung [25]: 2.4 log CFU/g of tissues | Body weight gain (BWG) [25]: 261.30±20.43 | effectiveness in clearing intracellular APEC serotypes in all tested cells [26]: most effective

CCN1C(=Cc2ccc3ccccc3[n+]2CC)C=Cc2ccccc21.[Cl-] [SM9]
MIC [1]: 25 µM | MBC [1]: 50 µM | MBC [2]: 50 µM | MIC [2]: 25 µM | MBC [3]: 50 µM | MIC [3]: 25 µM | MBC [4]: 50 µM | MIC [4]: 25 µM | MBC [5]: 100 µM | MIC [5]: 25 µM | MBC [6]: 100 µM | MIC [6]: 25 µM | MBC [7]: 50 µM | MIC [7]: 25 µM | MBC [8]: 50 µM | MIC [8]: 25 µM | MBC [9]: 50 µM | MIC [9]: 25 µM | MBC [10]: 25 µM | MIC [10]: 25 µM | MBC [11]: 100 µM | MIC [11]: 50 µM | MBC [12]: 25 µM | MIC [12]: 25 µM | MBEC [13]: 50^b µM | cytological profile (confocal, FM4-64 / SYTO-9) [14]: PG synthesis inhibitors | Absorbance 260 [15]: 3.99* | Absorbance 280 [15]: 2.78* | SMs intracellular APEC clearance concentration [16]: 50^b µM | SMs intracellular APEC clearance concentration [17]: 100^c µM | SMs intracellular APEC clearance concentration [18]: 50^b µM | SMs intracellular APEC clearance concentration [19]: 100^c µM | SMs intracellular APEC clearance concentration [20]: 100^c µM | SMs intracellular APEC clearance concentration [21]: 50^b µM | SMs intracellular APEC clearance concentration [22]: 100^c µM | SMs intracellular APEC clearance concentration [23]: 100^c µM | SMs intracellular APEC clearance concentration [24]: 50^b µM | reduction of average APEC load in internal organs ([25]; heart): either exacerbated or did not reduce | reduction of APEC induced mortality [25]: 42.86% | reduction of APEC lesions severity (%), Air-sacs (airsacculitis) [25]: -88.2% | reduction of APEC lesions severity (%), Heart (pericarditis) [25]: -60% | reduction of APEC lesions severity (%), Liver (perihepatitis) [25]: -50% | reduction of APEC lesions severity (%), Lung (lung congestion) [25]: -16.7% | reduction of APEC load, Heart [25]: -0.5 log CFU/g of tissues | reduction of APEC load, Kidney [25]: -0.2 log CFU/g of tissues | reduction of APEC load, Liver [25]: -0.1 log CFU/g of tissues | reduction of APEC load, Lung [25]: -0.9 log CFU/g of tissues | Body weight gain (BWG) [25]: 214.93±31.88 | effectiveness in clearing intracellular APEC serotypes in all tested cells [26]: most effective
